Measurements: PubChem BioAssay (NCI)
Where “and” joins values, the source holds several entries; their conditions need not be identical. Identical values can stand only once.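 Briefly, cells in 96-well plates were exposed to five compound concentrations for 48 h, and endpoints were estimated by linear interpolation. The concentration for 50% growth inhibition is given as GI50. At the TGI there is no net growth.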

Assays:
Assay in all cases: NCI tumour cell line growth inhibition, 48 h
[1] = test system: SK-OV-3 ovarian
[2] = test system: HOP-62 NSCLC
[3] = test system: RPMI-8226 leukemia
[4] = test system: COLO 205 colon
[5] = test system: IGROV1 ovarian
[6] = test system: 786-0 renal
[7] = test system: SNB-75 CNS
[8] = test system: OVCAR-3 ovarian
[9] = test system: A549 NSCLC
[10] = test system: SK-MEL-5 melanoma

Compound | TGI [1] | TGI [2] [µM] | TGI [3] [µM] | TGI [4] | TGI [5] | TGI [6] | TGI [7] | TGI [8] | TGI [9] | TGI [10] | GI50 [1] [µM] | GI50 [2] [µM] | GI50 [3] [µM] | GI50 [4] | GI50 [5] [µM] | GI50 [6] | GI50 [7] [µM] | GI50 [8] [µM] | GI50 [9] [µM] | GI50 [10]
CC(=O)O[C@H]1CC[C@@]2(C)C(=C/C(=N\[N+](=O)[O-])[C@H]3C4CCC([C@H](C)CCCC(C)C)[C@@]4(C)CCC32)C1 (stereo partly drawn) | > 100 µM | > 100 | > 100 | > 100 µM | > 100 µM | > 100 µM | > 100 µM | > 100 µM | > 100 µM | > 100 µM | – | – | – | – | – | – | – | – | – | –
O=C(NN1C(=O)CSC12CCC(c1ccccc1)CC2)c1[nH]c2ccc(F)cc2c1-c1ccccc1 (stereo not drawn) | > 100 µM | 34.7 | 31.8 | 68.3 µM | 25.7 µM | 33.8 µM | 36.3 µM | 31.5 µM | 30.8 µM | 32.3 µM | 37.7 | 18.3 | 13.8 | 21.2 µM | 13 | 16.4 µM | 18 | 17.1 | 15.7 | 17.5 µM
COc1cc2c3cc1Oc1c(OC)c(OC)cc4c1C(Cc1ccc(cc1)Oc1cc(ccc1O)CC3N(C)CC2)N(C)CC4 (stereo not drawn) | 69.6 µM and 86.2 µM | 34.7 | 32.1 | 23 µM and 11.3 µM | 43.8 µM and 29.4 µM | > 100 µM and 38.5 µM | 25.3 µM and 23.8 µM | 29.1 µM and 62.8 µM | 39.6 µM and 25.2 µM | 18.7 µM and 3.72 µM | – | – | – | 11 µM and 1.52 µM | – | > 100 µM and 10.2 µM | – | – | – | 6.2 µM and 1.81 µM
O=S(=O)(N/N=C/c1ccc(Cl)cc1Cl)c1ccccc1 | > 100 µM | > 100 | > 100 | > 100 µM | > 100 µM | > 100 µM | > 100 µM | > 100 µM | > 100 µM | > 100 µM | – | – | – | – | – | – | – | – | – | –
NCCSC(C[N+](=O)[O-])c1ccccc1Cl (stereo not drawn) | 24 µM | 23.1 | 5.3 | 4.35 µM | 9.67 µM | 4.33 µM | 16.9 µM | 3.5 µM | 15.5 µM | 10.1 µM | 11.7 | 8.09 | 0.727 | 2.14 µM | 2.89 | 2.16 µM | 4.22 | 1.88 | 4.87 | 3.03 µM
CN(C)N=Nc1nn(C(=O)Nc2ccc(Cc3ccccc3)cc2)c2ccccc12 | > 100 µM | > 100 | > 100 | 2.45 µM | > 100 µM | > 100 µM | > 100 µM | > 100 µM | > 100 µM | 1.09 µM | > 100 | > 100 | 5.06 | 0.77 µM | 43.5 | 5.25 µM | 85.4 | 11.8 | 3.9 | 0.122 µM
[O-][n+]1c2cc(CN3CCOCC3)c(CN3CCOCC3)cc2[n+]([O-])c2c(O)cccc21 | 13.5 µM | 15.8 | 12.2 | 11.1 µM | 13 µM | 6.03 µM | 21.3 µM | 13 µM | > 25.3 µM | > 37.9 µM | – | – | – | – | – | – | – | – | – | –
CCOC(=O)C1Oc2ccc([N+](=O)[O-])cc2C1(C)O (stereo not drawn) | > 100 µM | > 100 | > 100 | > 100 µM | > 100 µM | > 100 µM | > 100 µM | > 100 µM | > 100 µM | > 100 µM | – | – | – | – | – | – | – | – | – | –
CCOC(=O)/C=C1\Oc2ccccc2C1(C)O (stereo not drawn) | > 100 µM | > 100 | > 100 | > 100 µM | > 100 µM | > 100 µM | > 100 µM | > 100 µM | > 100 µM | > 100 µM | – | – | – | – | – | – | – | – | – | –
CCc1nc(N)nc(N)c1C#CC(C)c1cc(-c2ccnc(C)c2)c2oc(C)nc2c1 (stereo not drawn) | 8.53 µM | 5.92 | 3.31 | 6.9 µM | 6.23 µM | 5.54 µM | 3.78 µM | 15 µM | 11.7 µM | 1.49 µM | 0.113 | < 0.01 | 0.0771 | 0.0246 µM | < 0.01 | < 0.01 µM | 0.278 | 0.0893 | < 0.01 | < 0.01 µM
Oc1ccc(O)c2c1C1(Cl)C(Cl)=C(Cl)C2(Cl)C1(Cl)Cl | 20.4 µM | 21.2 | 63.3 | 25.4 µM | 20.2 µM | 22.4 µM | 6.84 µM | 5.17 µM | 37.4 µM | 17 µM | 7.41 | 8.27 | 4.82 | 11.6 µM | 5.73 | 7.84 µM | 1.52 | 2.03 | 5.89 | 5.09 µM
O=C1OC(OC/C(Br)=C(/Br)COC2OC(=O)C(Cl)=C2Cl)C(Cl)=C1Cl (stereo not drawn) | > 55.8 µM | 28.8 | 5.19 | 10.4 µM | 28.2 µM | 14.1 µM | 36 µM | 14.6 µM | 48.9 µM | 26.8 µM | – | – | – | – | – | – | – | – | – | –
Nc1ccc(C2=Nc3ccccc3SC(c3ccccc3O)C2)cc1 (stereo not drawn) | > 100 µM | > 100 | 49.7 | > 100 µM | > 100 µM | 73.6 µM | 93.3 µM | > 100 µM | > 100 µM | > 100 µM | – | – | – | – | – | – | – | – | – | –
COC(=O)Nc1nc2ccc(S(=O)(=O)c3ccc(NC(=O)Nc4cc(C(F)(F)F)ccc4F)cc3)cc2[nH]1 | > 25 µM | > 25 | > 25 | > 25 µM | > 25 µM | > 25 µM | > 25 µM | > 25 µM | > 25 µM | > 25 µM | > 25 | > 25 | > 25 | > 25 µM | > 25 | > 25 µM | > 25 | > 25 | > 25 | > 25 µM
COC1OC(C(C)O)C2OC(C)(C)OC12 (stereo not drawn) | > 100 µM | > 100 | > 100 | > 100 µM | > 100 µM | > 100 µM | > 100 µM | > 100 µM | > 100 µM | > 100 µM | – | – | – | – | – | – | – | – | – | –
Cc1ccc([N+](=O)[O-])c2c(NCCC[N+](C)(C)[O-])ccnc12 | > 100 µM | > 100 | > 100 | > 100 µM | 67.3 µM | > 100 µM | > 100 µM | > 100 µM | > 100 µM | 24.6 µM | – | – | – | – | – | – | – | – | – | –
COc1ccc(/C=N\O[Si](C)(C)C(C)(C)C)cc1O[Si](C)(C)C(C)(C)C | 46.5 µM | 36 | 39 | 52.2 µM | 36 µM | 30.8 µM | 37.1 µM | 31 µM | 34.9 µM | 33.9 µM | – | – | – | – | – | – | – | – | – | –
